Assay results taken from patent US7034020B2, “Derivatives of butyric acid and uses thereof” (The University of Arkansas for Medical Science, priority 1999, dated 2006).

Assays:
[1] = test system: total anti-ovalbumin antibody in the serum; test: Primary anti-ovalbumin antibody production in vivo (ELISA), derivatives on Days 1–3; set-up: species or system C57BL/10 mice; settings: 0.091 mmol ip Days 1–3; serum day 10
Procedure: C57BL/10 mice are injected ip on Day 0 with ovalbumin followed by ip injections of saline, or one of three different butyrate derivatives on Days 1–3.
The butyrate derivatives are tested for their ability to suppress lymphocyte activity in vivo. C57BL/10 mice (5 mice/group) are injected ip with 100 μg of ovalbumin in conjunction with complete Freund's adjuvant on Day 0. In one experiment, the mice also receive one ip injection per day of the butyrate derivatives (0.091 mmol) on Days 1–3. Serum samples are obtained 10 days after the initial injection with ovalbumin, and tested for the presence of anti-ovalbumin antibodies using an ELISA. To perform the ELISA 96 well plates (Costar 3595) are first incubated with ovalbumin (100 μl/well of 100 μg/ml in PBS) overnight at 4° C. The plates are then washed 4 times with PBS and 0.5% Tween 20, blocked with 1% fetal calf serum for 30 minutes at 37° C., and washed again. Individual serum samples are added (diluted 1/100 or 1/1000 in PBS), and the plates are incubated for 2 hours at 20° C. The plates were next washed 7 times with PBS/Tween, and alkaline phosphate (AP)-labeled goat anti-mouse IgG, IgA, IgM (H+L) (Zymed) is added ( 1/1000) for 1 hour at 20° C. The plates are again washed 7 times with PBS/Tween, alkaline phosphate substrate (1 mg/ml) is added. After 10 minutes, Ig levels are quantified by an ELISA reader (absorbance 405 nm). The concentration of anti-ovalbumin is determined by comparison with a standard curve obtained using mouse anti-ovalbumin antibody (Sigma; St. Louis, Mo.). To measure isotype-specific anti-ovalbumin antibodies, serum samples (diluted at 1/300 or 1/1000) are incubated on the ovalbumin-coated plates as described above. […] Ig levels are presented as OD measurements.

[2] = test system: KLH-specific Th1 cells (clone C3); test: Cell cycle analysis (DNA content) of IL-2-stimulated Th1 cells; format: cell-based, C57BL/10 mice
Procedure: KLH-specific, Th1 cells (clone C3) are left unstimulated (resting), or are stimulated with IL-2 (10% Con A CM) in the presence or absence of MEB (1 mM). The Th1 cells are collected after 48 hours, and assayed for DNA content.
KLH-specific Th1 cells (clone C3) were stimulated with IL-2 (10% Con A CM) at the initiation of culture, and then again at 24, 48, and 96 hours (FIG. 8A). Some cultures also received a single dose of MEB (1 mM) at times 0, 15, 24 or 39 hours after the initiation of culture (FIGS. 8B, 8C, 8D, and 8E, respectively). The Th1 cells were collected at 0, 48, 72, 96 or 120 hours after the initiation of culture and assayed for DNA content.
If the ability of butyrate and its derivatives to induce Th1 cell tolerance is linked to their ability to block antigen-activated Th1 cells in G1, their therapeutic importance is enhanced if MEB induces G1 cell cycle blockade regardless of when in the cell cycle the compound is added. MEB is added to cultures of IL-2-stimulated Th1 at various time points. In the absence of MEB, it is shown that approximately 50% of IL-2-activated Th1 cells have exited G1 by Day 2 (FIG. 8). I n contrast, if MEB is added at the initiation of culture, over 97% of the IL-2-stimulated Th1 cells remain in G0/G1 for the duration of the experiment (120 hours). […] If MEB is added 24 hours instead of 15 hours after IL-2 stimulation, 89% of the Th1 cells are blocked in G1 phase by 48 h, and the cell cycle profile looks very similar to that obtained if MEB is added at the initiation of culture. Finally, even if MEB is added as late as 39 hours after IL-2 stimulation, 87% of the Th1 cells (as compared to 49.9% of controls) are sequestered in G0/G1 when DNA content is measured at 72 hours.
To examine DNA content, Th1 cells were fixed in prechilled 70% ethanol overnight at 4° C. The fixed Th1 cells were next washed in PBS, resuspended in 1 ml of staining buffer containing RNase (1 mg/ml; Sigma) and propidium iodide (50 μg/ml; Sigma), incubated for 20 minutes in the dark at 20° C., and analyzed by flow cytometry using a FACSCalibur (Becton Dickinson, Moutain View, Calif.). The data were analyzed using the ModFit DNA analysis program (Verity Software House).

CCCC(=O)OCCN1CCOCC1.Cl [MEB, 2-(4-Morpholinyl)ethyl butyrate hydrochloride]
Decrease of primary anti-ovalbumin antibody response versus saline [1]: 65% | Th1 cells remaining in G0/G1 ([2]; IL-2 (10% Con A CM) plus MEB 1 mM, 48 hours): essentially all | IL-2-stimulated Th1 cells in G0/G1 ([2]; MEB 1 mM added 15 hours after IL-2, by 96 hours (control 56.9%)): 79.3% | IL-2-stimulated Th1 cells in G1 ([2]; MEB 1 mM added 24 hours after IL-2, by 48 h): 89% | IL-2-stimulated Th1 cells in G0/G1 ([2]; MEB 1 mM added 39 hours after IL-2, at 72 hours (control 49.9%)): 87% | IL-2-stimulated Th1 cells in G0/G1 ([2]; MEB 1 mM added at initiation of culture, for duration of experiment (120 hours)): over 97%
